Patent USRE29883E, “Antibacterial product” (Cosan Chemical Corporation, priority 1977, dated 1979)

Key:
[1] = data available from Dow Chemical on Dowicil 200; cited from earlier work
[2] = data available from Dow Chemical on Dowicil 100; cited from earlier work
[3] = tested on: gram positive and gram negative microorganisms; test: antimicrobial spectrum, general statement
From the text: The two-to-one quaternary ammonium adduct of this invention is particularly useful as an antimicrobial agent in a wide variety of water-based systems such as latex paints, resin emulsions, joint cement, adhesives, dispersed pigments and dyes, and other similar aqueous compositions.

Acute Dermal LD50 = details: in vivo, topical or ocular, standard, accepted protocols
From the text: (§1) Both the acute oral LD50 and acute dermal LD50 tests were run in accordance with standard, accepted protocols.

Acute Oral LD50 = details: in vivo, standard, accepted protocols
From the text: as §1

Pseudomonas aeruginosa = test: antibacterial properties of latex paint inoculated with Pseudomonas aeruginosa (Example 4); details: 3.6 grams adduct in vinyl acrylic paint
Method: To a 1 gallon stainless steel beaker, equipped with a sheer type agitator, the following ingredients are charged in sequence:
This premix is then added to the above with agitation such that excessive air is not incorporated. To the above prepared combination is added 1,401 grams of a vinyl acrylic resin emulsion and mixed for a period of 10 minutes.
The resulting paint prepared above was examined for antibacterial properties by inoculating a portion with approximately 10^8 organisms per ml Pseudomonas aeruginosa. Paint samples returned to sterility within 24 hours of inoculation and maintained the same degree of preservation for periods in excess of 9 months, at which time the testing was discontinued.

common forms of bacteria = test: antimicrobial effectiveness in water-based systems, general statement; details: relative to suggested range 0.05% to 0.20%
From the text: The two-to-one quaternary ammonium adduct of this invention is useful in the preparation and storage of systems susceptible to deterioration by microorganisms such as the common forms of bacteria. The exact concentration of the adduct during use is dependent upon a number of factors including duration of storage, temperature of storage, etc.

thermal decomposition = format: physicochemical
water solubility = format: physicochemical
bacterial cultures = test: microbial stability of oil-water hair dressing emulsion (Example 5); details: 0.2% adduct in oil-water hair dressing emulsion; after 6 months at 35° C
Method: The following is a formulation for an oil-water hair dressing emulsion: […]
Part A is heated to 75° C. and Part B is heated to 70° C. The test compound (Part C) is dissolved in Part B and the resulting solution added to Part A with good agitation. The mixture was perfumed 45° C. and agitated until cold.
The composition prepared above was tested for microbial stability for a period of 6 months and after 6 months at 35° C.

[4] = toxicological comparison with the one-to-one adducts (acute dermal and acute oral LD50); format: in vivo
From the text: Additionally, the two-to-one adduct formed from hexamethylenetetramine and 3,4-dichlorobutene-1 according to this invention is less toxic than either the Frank or Wolf one-to-one adducts.
as §1

SMILES: ClC=CC[N+]12CN3CN(CN(C3)C1)C2
- Acute Dermal LD50 [1]: 540 mg/kg
- Acute Oral LD50 [2]: 745 mg/kg

SMILES: C(=CC[N+]12CN3CN(CN(C3)C1)C2)C[N+]12CN3CN(CN(C3)C1)C2 [1,1'-(but-2-enylene) bis(3,5,7-triaza-1-azoniaadamantane chloride)]
- effectiveness against microorganisms [3]: effective against a broad spectrum of gram positive and gram negative microorganisms
- LD50 (Acute Dermal LD50): 8000 mg/kg
- LD50 (Acute Oral LD50): 3400 mg/kg
- preservation of paint viscosity, stability and performance characteristics (Pseudomonas aeruginosa): maintained the viscosity, stability and performance characteristics of the paint
- time for paint samples to return to sterility after inoculation (Pseudomonas aeruginosa; approximately 10^8 organisms per ml Pseudomonas aeruginosa): ≤ 24 h
- period for which the same degree of preservation was maintained (Pseudomonas aeruginosa; testing then discontinued): > 9 months
- minimal inhibitory concentrations vis-a-vis the common bacteria (common forms of bacteria): much less than this suggested range
- decomposition point (thermal decomposition): about 130 °C
- water solubility (water solubility): water-soluble
- resistance to bacterial contamination on inoculation with bacterial cultures (bacterial cultures): still resistant to bacterial contamination
- toxicity relative to the Frank or Wolf one-to-one adducts [4]: less toxic

SMILES: ClCC=CC[N+]12CN3CN(CN(C3)C1)C2 [reference compound]
- LD50 (Acute Dermal LD50): 2000 mg/kg
- LD50 (Acute Oral LD50): 1600 mg/kg
